Measurements as given in ChEMBL document CHEMBL1909046, “DrugMatrix in vitro pharmacology data”.
pIC50, pKi: −log10 of the molar value.

Tested on: not listed separately
Assay: DRUGMATRIX: Leukotriene, BLT (LTB4) radioligand binding (ligand: [3H]LTB4)
Format: cell membranes, Membrane
Settings: u-937; Not Active = under 50% inhibition at 10 µM

SMILES	IC50	Ki
C[C@H]1O[C@@H](n2cc(F)c(=O)[nH]c2=O)[C@H](O)[C@@H]1O [DOXIFLURIDINE]	Not Active	Not Active
Cn1c(=O)c2c(ncn2CC(O)CO)n(C)c1=O (stereo not drawn) [DYPHYLLINE]	Not Active	Not Active
CC[C@H]1CN2CCc3cc(OC)c(OC)cc3[C@@H]2C[C@@H]1C[C@H]1NCCc2cc(OC)c(OC)cc21 [EMETINE]	Not Active	Not Active
C[C@@H](CO)NC(=O)[C@@H]1C=C2c3cccc4[nH]cc(c34)C[C@H]2N(C)C1 [ERGONOVINE]	Not Active	Not Active
COC(=O)CCc1ccc(OCC(O)CNC(C)C)cc1 (stereo not drawn) [ESMOLOL]	Not Active	Not Active
CCC1(C)CC(=O)NC1=O (stereo not drawn) [ETHOSUXIMIDE]	Not Active	Not Active
C#C[C@]1(OC(C)=O)CC[C@H]2[C@@H]3CCC4=C[C@@H](OC(C)=O)CC[C@@H]4[C@H]3CC[C@@]21C [ETHYNODIOL DIACETATE]	Not Active	Not Active
COc1cc([C@@H]2c3cc4c(cc3[C@@H](O[C@@H]3O[C@@H]5CO[C@@H](C)O[C@H]5[C@H](O)[C@H]3O)[C@H]3COC(=O)[C@H]23)OCO4)cc(OC)c1O [ETOPOSIDE]	Not Active	Not Active

Target: T1, Thromboxane-A synthase (Homo sapiens, UniProt P24557);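 note: enzyme inhibition assay with PGH2 supplied as substrate; in other assays of this panel Not Active means under 50% inhibition at 10 µM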
T1 sequence (P24557 whole entry): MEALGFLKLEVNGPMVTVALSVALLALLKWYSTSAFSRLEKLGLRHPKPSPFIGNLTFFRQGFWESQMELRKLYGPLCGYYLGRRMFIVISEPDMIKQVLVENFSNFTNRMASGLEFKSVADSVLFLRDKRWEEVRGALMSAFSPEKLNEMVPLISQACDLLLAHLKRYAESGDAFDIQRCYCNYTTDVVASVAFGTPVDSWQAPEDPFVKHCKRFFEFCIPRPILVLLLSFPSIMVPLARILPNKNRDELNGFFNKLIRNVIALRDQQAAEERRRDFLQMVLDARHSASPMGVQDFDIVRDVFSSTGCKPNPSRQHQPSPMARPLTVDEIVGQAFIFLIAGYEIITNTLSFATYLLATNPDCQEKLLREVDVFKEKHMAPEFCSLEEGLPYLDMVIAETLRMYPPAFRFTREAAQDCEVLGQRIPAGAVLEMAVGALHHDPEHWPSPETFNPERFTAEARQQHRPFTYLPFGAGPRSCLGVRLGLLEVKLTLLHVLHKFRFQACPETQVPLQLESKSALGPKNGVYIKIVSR
Assay: biochemical
Format: tissue-based, Platelet
Settings: platelet

SMILES	IC50
C[C@H]1O[C@@H](n2cc(F)c(=O)[nH]c2=O)[C@H](O)[C@@H]1O [DOXIFLURIDINE]	Not Active
Cn1c(=O)c2c(ncn2CC(O)CO)n(C)c1=O (stereo not drawn) [DYPHYLLINE]	Not Active
CC[C@H]1CN2CCc3cc(OC)c(OC)cc3[C@@H]2C[C@@H]1C[C@H]1NCCc2cc(OC)c(OC)cc21 [EMETINE]	Not Active
C[C@@H](CO)NC(=O)[C@@H]1C=C2c3cccc4[nH]cc(c34)C[C@H]2N(C)C1 [ERGONOVINE]	Not Active
COC(=O)CCc1ccc(OCC(O)CNC(C)C)cc1 (stereo not drawn) [ESMOLOL]	Not Active
CCC1(C)CC(=O)NC1=O (stereo not drawn) [ETHOSUXIMIDE]	Not Active
C#C[C@]1(OC(C)=O)CC[C@H]2[C@@H]3CCC4=C[C@@H](OC(C)=O)CC[C@@H]4[C@H]3CC[C@@]21C [ETHYNODIOL DIACETATE]	Not Active
COc1cc([C@@H]2c3cc4c(cc3[C@@H](O[C@@H]3O[C@@H]5CO[C@@H](C)O[C@H]5[C@H](O)[C@H]3O)[C@H]3COC(=O)[C@H]23)OCO4)cc(OC)c1O [ETOPOSIDE]	Not Active

Target: T2, Muscarinic acetylcholine receptor M2 (Homo sapiens, UniProt P08172); note: in other assays of this panel Not Active means under 50% inhibition at 10 µM
T2 sequence (P08172 whole entry): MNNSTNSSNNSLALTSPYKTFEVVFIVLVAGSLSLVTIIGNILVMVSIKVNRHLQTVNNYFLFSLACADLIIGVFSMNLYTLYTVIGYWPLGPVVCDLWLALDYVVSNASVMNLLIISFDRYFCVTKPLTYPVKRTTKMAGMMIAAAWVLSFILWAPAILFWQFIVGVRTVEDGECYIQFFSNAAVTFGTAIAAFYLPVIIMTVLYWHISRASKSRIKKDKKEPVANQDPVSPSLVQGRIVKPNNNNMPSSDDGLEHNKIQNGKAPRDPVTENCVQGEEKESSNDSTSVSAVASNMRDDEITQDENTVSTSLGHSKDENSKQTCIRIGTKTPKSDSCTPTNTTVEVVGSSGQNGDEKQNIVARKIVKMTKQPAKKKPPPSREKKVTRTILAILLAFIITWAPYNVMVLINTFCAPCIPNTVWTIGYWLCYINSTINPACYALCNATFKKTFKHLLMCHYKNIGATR
Assay: not given
Format: cell membranes, CHO-K1, Membrane
Settings: cho-k1

SMILES	IC50
C[C@H]1O[C@@H](n2cc(F)c(=O)[nH]c2=O)[C@H](O)[C@@H]1O [DOXIFLURIDINE]	Not Active
Cn1c(=O)c2c(ncn2CC(O)CO)n(C)c1=O (stereo not drawn) [DYPHYLLINE]	Not Active
CC[C@H]1CN2CCc3cc(OC)c(OC)cc3[C@@H]2C[C@@H]1C[C@H]1NCCc2cc(OC)c(OC)cc21 [EMETINE]	Not Active
C[C@@H](CO)NC(=O)[C@@H]1C=C2c3cccc4[nH]cc(c34)C[C@H]2N(C)C1 [ERGONOVINE]	Not Active
COC(=O)CCc1ccc(OCC(O)CNC(C)C)cc1 (stereo not drawn) [ESMOLOL]	Not Active
CCC1(C)CC(=O)NC1=O (stereo not drawn) [ETHOSUXIMIDE]	Not Active
C#C[C@]1(OC(C)=O)CC[C@H]2[C@@H]3CCC4=C[C@@H](OC(C)=O)CC[C@@H]4[C@H]3CC[C@@]21C [ETHYNODIOL DIACETATE]	Not Active
COc1cc([C@@H]2c3cc4c(cc3[C@@H](O[C@@H]3O[C@@H]5CO[C@@H](C)O[C@H]5[C@H](O)[C@H]3O)[C@H]3COC(=O)[C@H]23)OCO4)cc(OC)c1O [ETOPOSIDE]	Not Active

Target: Protein phosphatase 3 catalytic subunit alpha (Homo sapiens, UniProt Q08209);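 note: inhibition of calcineurin (PP2B) enzyme activity, measured with DiFMUP as the substrate; in other assays of this panel Not Active means under 50% inhibition at 10 µM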
Assay: not given
Design: species or system Escherichia coli
Settings: not given

SMILES	IC50
C[C@H]1O[C@@H](n2cc(F)c(=O)[nH]c2=O)[C@H](O)[C@@H]1O [DOXIFLURIDINE]	Not Active
Cn1c(=O)c2c(ncn2CC(O)CO)n(C)c1=O (stereo not drawn) [DYPHYLLINE]	Not Active
CC[C@H]1CN2CCc3cc(OC)c(OC)cc3[C@@H]2C[C@@H]1C[C@H]1NCCc2cc(OC)c(OC)cc21 [EMETINE]	Not Active
C[C@@H](CO)NC(=O)[C@@H]1C=C2c3cccc4[nH]cc(c34)C[C@H]2N(C)C1 [ERGONOVINE]	Not Active
COC(=O)CCc1ccc(OCC(O)CNC(C)C)cc1 (stereo not drawn) [ESMOLOL]	Not Active
CCC1(C)CC(=O)NC1=O (stereo not drawn) [ETHOSUXIMIDE]	Not Active
C#C[C@]1(OC(C)=O)CC[C@H]2[C@@H]3CCC4=C[C@@H](OC(C)=O)CC[C@@H]4[C@H]3CC[C@@]21C [ETHYNODIOL DIACETATE]	Not Active
COc1cc([C@@H]2c3cc4c(cc3[C@@H](O[C@@H]3O[C@@H]5CO[C@@H](C)O[C@H]5[C@H](O)[C@H]3O)[C@H]3COC(=O)[C@H]23)OCO4)cc(OC)c1O [ETOPOSIDE]	Not Active

Target: T3, 5-hydroxytryptamine receptor 1A (Rattus norvegicus, UniProt P19327); note: in other assays of this panel Not Active means under 50% inhibition at 10 µM
T3 sequence (P19327 whole entry): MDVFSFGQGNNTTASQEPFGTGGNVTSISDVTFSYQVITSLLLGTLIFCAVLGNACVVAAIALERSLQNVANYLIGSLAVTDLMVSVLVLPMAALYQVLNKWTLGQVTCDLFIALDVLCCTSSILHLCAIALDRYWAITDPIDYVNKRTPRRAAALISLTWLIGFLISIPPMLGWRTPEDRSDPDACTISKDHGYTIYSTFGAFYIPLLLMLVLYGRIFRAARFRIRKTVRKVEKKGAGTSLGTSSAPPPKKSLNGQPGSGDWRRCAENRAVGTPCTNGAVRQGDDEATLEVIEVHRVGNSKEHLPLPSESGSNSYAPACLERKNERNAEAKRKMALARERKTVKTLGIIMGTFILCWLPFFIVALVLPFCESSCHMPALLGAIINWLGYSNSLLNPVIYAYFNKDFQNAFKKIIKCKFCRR
Assay: not given
Format: cell membranes, CHO-K1, Membrane
Settings: cho-k1

SMILES	IC50
C[C@H]1O[C@@H](n2cc(F)c(=O)[nH]c2=O)[C@H](O)[C@@H]1O [DOXIFLURIDINE]	Not Active
Cn1c(=O)c2c(ncn2CC(O)CO)n(C)c1=O (stereo not drawn) [DYPHYLLINE]	Not Active
CC[C@H]1CN2CCc3cc(OC)c(OC)cc3[C@@H]2C[C@@H]1C[C@H]1NCCc2cc(OC)c(OC)cc21 [EMETINE]	Not Active
COC(=O)CCc1ccc(OCC(O)CNC(C)C)cc1 (stereo not drawn) [ESMOLOL]	Not Active
CCC1(C)CC(=O)NC1=O (stereo not drawn) [ETHOSUXIMIDE]	Not Active
C#C[C@]1(OC(C)=O)CC[C@H]2[C@@H]3CCC4=C[C@@H](OC(C)=O)CC[C@@H]4[C@H]3CC[C@@]21C [ETHYNODIOL DIACETATE]	Not Active
COc1cc([C@@H]2c3cc4c(cc3[C@@H](O[C@@H]3O[C@@H]5CO[C@@H](C)O[C@H]5[C@H](O)[C@H]3O)[C@H]3COC(=O)[C@H]23)OCO4)cc(OC)c1O [ETOPOSIDE]	Not Active

Same assay, conditions: read-out: IC50

SMILES	pIC50
C[C@@H](CO)NC(=O)[C@@H]1C=C2c3cccc4[nH]cc(c34)C[C@H]2N(C)C1 [ERGONOVINE]	8.09

Same assay, conditions: read-out: Ki

SMILES	pKi
C[C@@H](CO)NC(=O)[C@@H]1C=C2c3cccc4[nH]cc(c34)C[C@H]2N(C)C1 [ERGONOVINE]	8.33

Target: Substance-P receptor (Homo sapiens, UniProt P25103); note: in other assays of this panel Not Active means under 50% inhibition at 10 µM
Assay: not given
Format: cell membranes, CHO, Membrane
Settings: cho

Substance-P receptor, sequence (P25103 whole entry): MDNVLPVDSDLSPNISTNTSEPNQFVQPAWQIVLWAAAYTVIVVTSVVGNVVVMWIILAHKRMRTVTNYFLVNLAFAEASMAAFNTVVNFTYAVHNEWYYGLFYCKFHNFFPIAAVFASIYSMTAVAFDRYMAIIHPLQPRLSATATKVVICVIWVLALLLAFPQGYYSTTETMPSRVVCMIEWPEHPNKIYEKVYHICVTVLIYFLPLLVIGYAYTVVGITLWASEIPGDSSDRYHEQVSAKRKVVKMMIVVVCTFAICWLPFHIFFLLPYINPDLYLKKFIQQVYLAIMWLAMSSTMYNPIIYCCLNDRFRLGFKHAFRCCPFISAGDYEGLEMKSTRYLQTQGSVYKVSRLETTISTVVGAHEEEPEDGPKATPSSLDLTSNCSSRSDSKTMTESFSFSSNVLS

SMILES	IC50
C[C@H]1O[C@@H](n2cc(F)c(=O)[nH]c2=O)[C@H](O)[C@@H]1O [DOXIFLURIDINE]	Not Active
Cn1c(=O)c2c(ncn2CC(O)CO)n(C)c1=O (stereo not drawn) [DYPHYLLINE]	Not Active
CC[C@H]1CN2CCc3cc(OC)c(OC)cc3[C@@H]2C[C@@H]1C[C@H]1NCCc2cc(OC)c(OC)cc21 [EMETINE]	Not Active
C[C@@H](CO)NC(=O)[C@@H]1C=C2c3cccc4[nH]cc(c34)C[C@H]2N(C)C1 [ERGONOVINE]	Not Active
COC(=O)CCc1ccc(OCC(O)CNC(C)C)cc1 (stereo not drawn) [ESMOLOL]	Not Active
CCC1(C)CC(=O)NC1=O (stereo not drawn) [ETHOSUXIMIDE]	Not Active
C#C[C@]1(OC(C)=O)CC[C@H]2[C@@H]3CCC4=C[C@@H](OC(C)=O)CC[C@@H]4[C@H]3CC[C@@]21C [ETHYNODIOL DIACETATE]	Not Active
COc1cc([C@@H]2c3cc4c(cc3[C@@H](O[C@@H]3O[C@@H]5CO[C@@H](C)O[C@H]5[C@H](O)[C@H]3O)[C@H]3COC(=O)[C@H]23)OCO4)cc(OC)c1O [ETOPOSIDE]	Not Active

Tested on: not listed separately
Assay: DRUGMATRIX: Interleukin IL-1 radioligand binding (ligand: [125I] interleukin 1beta)
Format: cell membranes, Membrane
Settings: nih3t3; Not Active = under 50% inhibition at 10 µM

SMILES	IC50	Ki
C[C@H]1O[C@@H](n2cc(F)c(=O)[nH]c2=O)[C@H](O)[C@@H]1O [DOXIFLURIDINE]	Not Active	Not Active
Cn1c(=O)c2c(ncn2CC(O)CO)n(C)c1=O (stereo not drawn) [DYPHYLLINE]	Not Active	Not Active
CC[C@H]1CN2CCc3cc(OC)c(OC)cc3[C@@H]2C[C@@H]1C[C@H]1NCCc2cc(OC)c(OC)cc21 [EMETINE]	Not Active	Not Active
C[C@@H](CO)NC(=O)[C@@H]1C=C2c3cccc4[nH]cc(c34)C[C@H]2N(C)C1 [ERGONOVINE]	Not Active	Not Active
COC(=O)CCc1ccc(OCC(O)CNC(C)C)cc1 (stereo not drawn) [ESMOLOL]	Not Active	Not Active
CCC1(C)CC(=O)NC1=O (stereo not drawn) [ETHOSUXIMIDE]	Not Active	Not Active
C#C[C@]1(OC(C)=O)CC[C@H]2[C@@H]3CCC4=C[C@@H](OC(C)=O)CC[C@@H]4[C@H]3CC[C@@]21C [ETHYNODIOL DIACETATE]	Not Active	Not Active
COc1cc([C@@H]2c3cc4c(cc3[C@@H](O[C@@H]3O[C@@H]5CO[C@@H](C)O[C@H]5[C@H](O)[C@H]3O)[C@H]3COC(=O)[C@H]23)OCO4)cc(OC)c1O [ETOPOSIDE]	Not Active	Not Active
